Legend:
Assay type in all cases: cell-based
Settings in all cases: 24 h incubation, visual reading
[1] = tested on: Staphylococcus aureus MRSA ATCC 43300; experiment: MIC assay, S. aureus MRSA ATCC 43300
Method in brief: (§1)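 Twofold broth microdilution in Mueller Hinton broth; compounds tested from 8 μg/ml to 0.003 μg/ml. Mid-log cultures were inoculated at 5×10e5 CFU/mL and incubated 24 h at 37° C. MIC was the lowest concentration with no visible growth.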

[2] = tested on: Streptococcus pneumoniae MDR ATCC 700677; experiment: MIC assay, S. pneumoniae MDR ATCC 700677
Method in brief: as §1

[3] = tested on: Enterococcus faecium MDR Van A ATCC 51559; experiment: MIC assay, E. faecium MDR Van A ATCC 51559
Method in brief: as §1

Minimum Inhibitory Concentration (MIC) Staph. aureus ATCC43300 [1]	Minimum Inhibitory Concentration (MIC) S. pneumoniae ATCC 700677 [2]	Minimum Inhibitory Concentration (MIC) E. faecium ATCC51559 [3]	Structure (SMILES)
xxxxx (xxxxx = <0.01)	xxxxx (xxxxx = <0.01)	xxx (xxx = 0.1-<1)	CCCCCCCCCCCC(=O)N[C@@H](CCCCN)C(=O)N[C@@H](CCCCN)C(=O)N[C@@H](CCCCN)C(=O)N[C@@H](CCCCNC(=O)[C@H]1NC(=O)[C@H]2NC(=O)[C@H](NC(=O)[C@@H]3NC(=O)[C@H](CC(N)=O)NC(=O)[C@H](NC(=O)[C@@H](CC(C)C)NC)[C@H](O)c4ccc(c(Cl)c4)Oc4cc3cc(c4O[C@@H]3O[C@H](CO)[C@@H](O)[C@H](O)[C@H]3O[C@H]3C[C@](C)(N)[C@H](O)[C@H](C)O3)Oc3ccc(cc3Cl)[C@H]2O)c2ccc(O)c(c2)-c2c(O)cc(O)cc21)C(=O)O [MCC_000348]
xxxx (xxxx = 0.01-<0.1)	xxxx (xxxx = 0.01-<0.1)	xx (xx = 1-4)	CCCCCCCCC(=O)N[C@@H](CCCCN)C(=O)N[C@@H](CCCCN)C(=O)NCCCNC(=O)[C@H]1NC(=O)[C@H]2NC(=O)[C@H](NC(=O)[C@@H]3NC(=O)[C@H](CC(N)=O)NC(=O)[C@H](NC(=O)[C@@H](CC(C)C)NC)[C@H](O)c4ccc(c(Cl)c4)Oc4cc3cc(c4O[C@@H]3O[C@H](CO)[C@@H](O)[C@H](O)[C@H]3O[C@H]3C[C@](C)(N)[C@H](O)[C@H](C)O3)Oc3ccc(cc3Cl)[C@H]2O)c2ccc(O)c(c2)-c2c(O)cc(O)cc21 [MCC_005199]
xxxx (xxxx = 0.01-<0.1)	xxxxxx	xx (xx = 1-4)	CNC(=O)C(CCCCNC(=O)C1NC(=O)C2NC(=O)C(NC(=O)C3NC(=O)C(CC(N)=O)NC(=O)C(NC(=O)C(CC(C)C)NC)C(O)c4ccc(c(Cl)c4)Oc4cc3cc(c4OC3OC(CO)C(O)C(O)C3OC3CC(C)(N)C(O)C(C)O3)Oc3ccc(cc3Cl)C2O)c2ccc(O)c(c2)-c2c(O)cc(O)cc21)NC(=O)C(CCCCN)NC(=O)C(CCCCN)NC(=O)CCCCCCCCCc1ccccc1 (stereo not drawn) [MCC_000510]
xxxxx (xxxxx = <0.01)	xxxxx (xxxxx = <0.01)	xx (xx = 1-4)	CCCCCCCc1ccc(C(=O)NC(CCCCN)C(=O)NC(CCCCN)C(=O)NC(CCCCNC(=O)C2NC(=O)C3NC(=O)C(NC(=O)C4NC(=O)C(CC(N)=O)NC(=O)C(NC(=O)C(CC(C)C)NC)C(O)c5ccc(c(Cl)c5)Oc5cc4cc(c5OC4OC(CO)C(O)C(O)C4OC4CC(C)(N)C(O)C(C)O4)Oc4ccc(cc4Cl)C3O)c3ccc(O)c(c3)-c3c(O)cc(O)cc32)C(=O)NC)cc1 (stereo not drawn) [MCC_000500]
xxxx (xxxx = 0.01-<0.1)	xxx (xxx = 0.1-<1)	xxx (xxx = 0.1-<1)	CCCCCCCCCN1CCC(C(=O)N[C@@H](CCCCN)C(=O)N[C@@H](CCCCNC(=O)[C@H]2NC(=O)[C@H]3NC(=O)[C@H](NC(=O)[C@@H]4NC(=O)[C@H](CC(N)=O)NC(=O)[C@H](NC(=O)[C@@H](CC(C)C)NC)[C@H](O)c5ccc(c(Cl)c5)Oc5cc4cc(c5O[C@@H]4O[C@H](CO)[C@@H](O)[C@H](O)[C@H]4O[C@H]4C[C@](C)(N)[C@H](O)[C@H](C)O4)Oc4ccc(cc4Cl)[C@H]3O)c3ccc(O)c(c3)-c3c(O)cc(O)cc32)C(N)=O)CC1 [MCC_004825]

Structure (SMILES)	Minimum Inhibitory Concentration (MIC) Staph. aureus ATCC43300 [1]	Minimum Inhibitory Concentration (MIC) S. pneumoniae ATCC 700677 [2]	Minimum Inhibitory Concentration (MIC) E. faecium ATCC51559 [3]
CCCCCCCCCC(=O)N[C@@H](CCCCN)C(=O)N1CCC(CNC(=O)[C@H]2NC(=O)[C@H]3NC(=O)[C@H](NC(=O)[C@@H]4NC(=O)[C@H](CC(N)=O)NC(=O)[C@H](NC(=O)[C@@H](CC(C)C)NC)[C@H](O)c5ccc(c(Cl)c5)Oc5cc4cc(c5O[C@@H]4O[C@H](CO)[C@@H](O)[C@H](O)[C@H]4O[C@H]4C[C@](C)(N)[C@H](O)[C@H](C)O4)Oc4ccc(cc4Cl)[C@H]3O)c3ccc(O)c(c3)-c3c(O)cc(O)cc32)CC1 [MCC_005488]	xxxx (xxxx = 0.01-<0.1)	xxxx (xxxx = 0.01-<0.1)	xx (xx = 1-4)

— US10947271B2, “Antibacterial agents” (THE UNIVERSITY OF QUEENSLAND, priority 2014, dated 2021)
